In US7524503B2, “Human cytomegalovirus (HCMV) cytotoxic T cell epitopes, polyepitopes compositions comprising same and diagnostic and prophylactic and therapeutic uses therefor” (priority 2001, dated 2009):
Where no end group is shown, it is not given here.

Each sequence was assayed against T1, HLA A2 (Homo sapiens, UniProt P04439, D140Y/D185E/D98H/E176V/E277Q/G131W/G231S/I119V/I121R/I166T/I218V/L300P/L318F/N151K/N90K/P208A/P217A/Q86G/Q94H/R138H/R169H/T345S) (assay: not given). Conditions: HLA A2 on T2 cells; relative increase in HLA expression vs no peptide at 26° C.
T1 construct: endogenous in cells; host or cells: T2 cells
Assay type: cell-based

Sequence	MSE (MHC stabilization efficiency)
ILDEERDKV (human cytomegalovirus IE1 CTL epitope peptide)	++ (++ = 100-199%)
LLLIVTPVV (human cytomegalovirus pp28 CTL epitope peptide)	++ (++ = 100-199%)
DLVPLTVSV (human cytomegalovirus pp71 CTL epitope peptide)	+ (+ = 51-99%)
LLSEFCRVL (human cytomegalovirus IE1 CTL epitope peptide)	++ (++ = 100-199%)
ILGADPLRV (human cytomegalovirus IE1 CTL epitope peptide)	++ (++ = 100-199%)
ILFDGHDLL (human cytomegalovirus gH CTL epitope peptide)	+++ (+++ = 200-300%)
LLVEPCARV (human cytomegalovirus pp28 CTL epitope peptide)	++ (++ = 100-199%)
TLLVYLFSL (human cytomegalovirus US3 CTL epitope peptide)	++ (++ = 100-199%)
QLRSVIRAL (human cytomegalovirus pp50 CTL epitope peptide)	− (− = 0-50%)
ALDPYNEVV (human cytomegalovirus gH CTL epitope peptide)	+++ (+++ = 200-300%)
NLALSTPFL (human cytomegalovirus IE2 CTL epitope peptide)	++ (++ = 100-199%)
FLGARSPSL (human cytomegalovirus pp150 CTL epitope peptide)	++ (++ = 100-199%)
NLFPYLVSA (human cytomegalovirus gB CTL epitope peptide)	++ (++ = 100-199%)
QLLIPKSFTL (human cytomegalovirus pp71 CTL epitope peptide)	− (− = 0-50%)
TMYGGISLL (human cytomegalovirus IE1 CTL epitope peptide)	++ (++ = 100-199%)
PLIPTTAVI (human cytomegalovirus pp150 CTL epitope peptide)	− (− = 0-50%)
PLREYLADL (human cytomegalovirus pp28 CTL epitope peptide)	− (− = 0-50%)
LLIPKSFTL (human cytomegalovirus pp71 CTL epitope peptide)	− (− = 0-50%)
NILQKIEKI (human cytomegalovirus pp150 CTL epitope peptide)	+ (+ = 51-99%)
SAIIGIYLL (human cytomegalovirus gH CTL epitope peptide)	− (− = 0-50%)

Each sequence was assayed on PBMC from healthy HCMV seropositive donors (assay: IFN-γ ELISPOT assay). Conditions: donor eight; peptide 10 μg/ml.
Assay type: cell-based, human
Protocol: ELISPOT assay was used to assess whether stimulation of PBMC from a large panel of seropositive donors with HCMV peptides could induce IFN-γ expression in T cells. Briefly, a 96-well nitrocellulose plate (Multiscreen, Millipore) was coated overnight at 4° C. with mouse monoclonal antibody anti-IFN-γ IgG1 (10 μg/ml; Mabtech Nacka, Sweden). The plate was then washed six times in Phosphate Buffered Saline (PBS) and blocked for 1 hour at 37° C. with PBS supplemented with 5% FCS. The blocking solution was removed and PBMC from healthy HCMV seropositive donors were added at a concentration of 2.5×10^5 cells per well in growth medium. These cells were incubated for 18 h at 37° C. in a 5% CO2 atmosphere in the presence of synthetic peptides from HCMV antigens (10 μg/ml). After incubation, the plate was washed three times with PBS supplemented with 0.05% Tween, followed by three washes with PBS alone. Biotinylated anti-IFN-γ (Mabtech, Nacka Sweden) detection antibody was added to each well at a final concentration of 1 μg/ml in PBS. The plates were incubated at room temperature in the dark for 4 h and then washed, as described above. Streptavidin-Alkaline phosphatase (Sigma) was added to each well at a final concentration of 1 μg/ml in PBS and incubated at room temperature in the dark for 2 h. After a final wash with PBS, the substrate, 5-bromo-4-chloro-3-indolyl phosphate and nitro blue tetrazolium, was added to each well and the plates incubated for 30 min at RT. Cells that produced IFN-γ in response to the presence of peptide were detected as purple spots on the nitrocellulose membrane of each well. The spots were counted automatically using a closed-circuit camera (CCD) and ImagePro image analysis software or automated ELISPOT reader (AID, Germany). The T cell precursor frequency for each peptide was based on the total number of PBMC in the well and the number of peptide-specific spots per well, over an average of 3 wells. The number of peptide-specific spots was also calculated by subtracting the negative control values, which consisted of PBMC without peptide (an average of 3 wells), from the test wells.
To determine whether memory CTL responses against the predictive HCMV potential epitopes could be detected in healthy seropositive virus carriers, we used the ELISPOT assay, which allows rapid identification of CTL epitopes without prolonged in vitro culture.
We tested epitopes that were restricted for HLA A1, A3, A24, A26, B7, B8, B27, B35 and B44 in ELISPOT assays, to determine whether memory T cell responses could be detected in healthy HLA-matched virus carriers. PBMC from a cohort of healthy virus carriers (Table 2) were stimulated with individual peptides and the cells that produced IFN-γ were detected. CTL epitopes that were restricted through either HLA A1, A3, A24, A26, B7, B8 or B27, were identified.
Thus, a total of 450 peptides were produced. ELISPOT assays were used to determine whether ex vivo memory T cell responses could be detected in a cohort of 14 healthy virus carriers (Table 2). PBMC were stimulated with individual peptides and the cells that produced IFN-γ were detected.

Sequence	ELISPOT Responses (SFC/10^6 PBMC)
PRVTSPTHPLSQMNHPPLPD	52 SFC/10^6 PBMC
ASSPSTGSGTPRBTSPTHPL (ASSPSTGSGTPRXTSPTHPL; not fully specified)	JW(95) SFC/10^6 PBMC
YRNMIIHAATPVDLLGALNL (human cytomegalovirus IE2 CTL epitope peptide)	132 SFC/10^6 PBMC

Same assay, conditions: donor eleven; peptide 10 μg/ml

Sequence	ELISPOT Responses (SFC/10^6 PBMC)
IGDQYVKVY	565 SFC/10^6 PBMC
TVQGQNLKY	385 SFC/10^6 PBMC

Same assay, conditions: donor epsilon; peptide 10 μg/ml

Sequence	ELISPOT Responses (SFC/10^6 PBMC)
THQLCPRSSDYRNMIIHAAT (human cytomegalovirus IE2 CTL epitope peptide)	173 SFC/10^6 PBMC
HRQDALPGPCIASTPKKHRG	SC(109) SFC/10^6 PBMC
RVKIDEVSRMFRNTNRSLEY	306 SFC/10^6 PBMC
TSAGRKRKSASSATACTSGV	SC(138) SFC/10^6 PBMC
YRNMIIHAATPVDLLGALNL (human cytomegalovirus IE2 CTL epitope peptide)	229 SFC/10^6 PBMC
WQPAAQPKRRRHRQDALPGP	SC(615) SFC/10^6 PBMC
PVDLLGALNLCLPLMQKFPK (human cytomegalovirus IE2 CTL epitope peptide)	111 SFC/10^6 PBMC
YRHTWDRHDEGAAQGDDDVW	SC(295) SFC/10^6 PBMC
LTVSGLAWTRQQNQWKEPDV	SC(695) SFC/10^6 PBMC

Same assay, conditions: donor fifteen; peptide 10 μg/ml

Sequence	ELISPOT Responses (SFC/10^6 PBMC)
RRKMMYMCYRNIEFFTKNSA (human cytomegalovirus IE1 CTL epitope peptide)	CP(632) SFC/10^6 PBMC
NIEFFTKNSAFPKTTNGCSQ (human cytomegalovirus IE1 CTL epitope peptide)	CP(1767) SFC/10^6 PBMC

Same assay, conditions: donor five; peptide 10 μg/ml

Sequence	ELISPOT Responses (SFC/10^6 PBMC)
YEQHKITSY (human cytomegalovirus pp50 CTL epitope peptide)	CS(67) SFC/10^6 PBMC
TENGSFVAGY (human cytomegalovirus UL18 CTL epitope peptide)	CS(283) SFC/10^6 PBMC

Same assay, conditions: donor four; peptide 10 μg/ml

Sequence	ELISPOT Responses (SFC/10^6 PBMC)
FETSGGLVVFWQGIKQKSLV (human cytomegalovirus gB CTL epitope peptide)	23 SFC/10^6 PBMC
ALTVSEHVSYVVTNQYLIKG	MB(23) SFC/10^6 PBMC
RPSTPRAAV (human cytomegalovirus pp150 CTL epitope peptide)	MB(306) SFC/10^6 PBMC

Same assay, conditions: donor nine; peptide 10 μg/ml

Sequence	ELISPOT Responses (SFC/10^6 PBMC)
RGDPFDKNY (human cytomegalovirus pp50 CTL epitope peptide)	720 SFC/10^6 PBMC

Same assay, conditions: donor seven; peptide 10 μg/ml

Sequence	ELISPOT Responses (SFC/10^6 PBMC)
FETSGGLVVFWQGIKQKSLV (human cytomegalovirus gB CTL epitope peptide)	185 SFC/10^6 PBMC
MLPLIKQEDIKPEPDFTIQY	SB(132) SFC/10^6 PBMC

Same assay, conditions: donor sixteen; peptide 10 μg/ml

Sequence	ELISPOT Responses (SFC/10^6 PBMC)
CTPNVQTRRGRVKIDEVSRM	TC(89) SFC/10^6 PBMC
IGDQYVKVY	67 SFC/10^6 PBMC
KCSSGGGASVTSSHHGRGGF	TC(54) SFC/10^6 PBMC
GLDRNSGNY (human cytomegalovirus pp50 CTL epitope peptide)	507 SFC/10^6 PBMC
THQLCPRSSDYRNMIIHAAT (human cytomegalovirus IE2 CTL epitope peptide)	124 SFC/10^6 PBMC
CVETMCNEY (human cytomegalovirus IE1 CTL epitope peptide) [reference compound]	TC(4187) SFC/10^6 PBMC
RGDPFDKNY (human cytomegalovirus pp50 CTL epitope peptide)	2739 SFC/10^6 PBMC
PRVTSPTHPLSQMNHPPLPD	96 SFC/10^6 PBMC
KDVALRHVVCAHELVCSMEN	TC(50) SFC/10^6 PBMC
RVKIDEVSRMFRNTNRSLEY	194 SFC/10^6 PBMC
LDEGIMVVY (human cytomegalovirus gB CTL epitope peptide)	TC(239) SFC/10^6 PBMC
NTDFRVLEL (human cytomegalovirus gB CTL epitope peptide)	TC(1631) SFC/10^6 PBMC
PLGRPDEDSSSSSSSSCSSA	TC(46) SFC/10^6 PBMC
VKESPGRCY (human cytomegalovirus gB CTL epitope peptide)	TC(51) SFC/10^6 PBMC
IKEHMLKKY (human cytomegalovirus IE1 CTL epitope peptide)	TC(4232) SFC/10^6 PBMC
YRNMIIHAATPVDLLGALNL (human cytomegalovirus IE2 CTL epitope peptide)	TC(137) SFC/10^6 PBMC
PVDLLGALNLCLPLMQKFPK (human cytomegalovirus IE2 CTL epitope peptide)	169 SFC/10^6 PBMC
TVQGQNLKY	251 SFC/10^6 PBMC
ATSTGDVVY (human cytomegalovirus gB CTL epitope peptide)	TC(239) SFC/10^6 PBMC
DEEEAIVAY (human cytomegalovirus IE1 CTL epitope peptide)	TC(3903) SFC/10^6 PBMC

Same assay, conditions: donor three; peptide 10 μg/ml

Sequence	ELISPOT Responses (SFC/10^6 PBMC)
GLDRNSGNY (human cytomegalovirus pp50 CTL epitope peptide)	345 SFC/10^6 PBMC
STSQKPVLGKRVATPHASAR (human cytomegalovirus pp150 CTL epitope peptide)	MW(215) SFC/10^6 PBMC
HANTALVNAVNKLVYTGRLI (human cytomegalovirus pp150 CTL epitope peptide)	MW(122) SFC/10^6 PBMC
